# Measurements as given in patent US8039616B2, “Benzodiazepine derivatives for treating hepatitis C infection” (AstraZeneca AB, priority 2005, dated 2011).
# Molecular target: T1, HCV Polymerase (Hepatitis C virus genotype 1a, UniProt P27958)
# T1 construct: the HCV Polymerase was expressed and purified by Prof Alistair Hawkins; made in house
# Assay: Polymerase 96 well microtitre plate based IC50 assay (33P-UTP incorporation, streptavidin FlashPlates)
# Assay type: biochemical
# Details: polyA/biotinylated-U13 template-primer, 100 minutes at 25° C.
# Text: Polymerase 96 Well Microtitre Plate Based IC50 Assay
# Inhibitors of HCV Polymerase can be detected radioactively by monitoring the incorporation of ^33P-UTP within an RNA template/Bi-primer system using streptavidin coated FlashPlates. The template and primer for the reaction can be bought externally from Amersham (Poly A) and MWG-Dharmacon (Biotinylated-U13). The cold UTP can be purchased from Roche and the HCV Polymerase was expressed and purified by Prof Alistair Hawkins at Newcastle University, UK.
# 50 μl substrate, 40 μl enzyme, 10 μl compound=100 μl assay
# Compounds are diluted so that DMSO remains 10% at all times. E.g. 5 μl compound (10 mM)+5 μl DMSO+90 μl Buffer (see below for buffer)
# Some 20 mM Tris-HCl, pH 7.5, 5 mM MgCl2, 25 mM KCL, 3 mM DTT and 0.05% BSA is made up.
# The PolyA and Biotinylated U13 are annealed at 70° C. for 5 minutes to 40 μM U13 (212 μg/ml polyA.) and cooled gently on ice prior to use (110 μl primer (80 μM)+5.5 μl poly A+104.5 μl dH20.). Some 200 μl annealed primer/template is mixed with 12.8 μl UTP (1 mM stock), 25.6 μl 33p-UTP and 31761.6 μl Buffer to make the substrate mix.
# From IC50 dilution plates 10 μl are transferred from column 3 into columns 3 and 3 on two separate assay plates. This is repeated for all compound dilutions to 2 separate assay plates. Then 10 μl 10% DMSO solution is added to positive and negative controls (see plate map below). In addition, 40 μl 20 mM Tris-HCl buffer is added to negative controls.
# Then 50 μl substrate mix is added to all wells.
# Then 40 μl enzyme mix each is added to all other wells and the reaction is left for 100 minutes shaking at 25° C.
# The reaction is terminated with the addition of 100 μl, 100 mM EDTA and the volume is transferred to a streptavidin coated flash plate, covered and left for an hour.
# All plates are washed three times in SkanWasher plate-washer (Skatron Instruments) under programme ‘AH’. The wash buffer contains, 0.01M phosphate buffer, 0.0027M potassium chloride and 0.137M sodium chloride, pH 7.4 at 25° C., 0.05% Tween
# All plate are recovered and the cpmB read in the TopCount (supplied by DPM solutions), protocol 6.
# T1 sequence (P27958 2421-3011): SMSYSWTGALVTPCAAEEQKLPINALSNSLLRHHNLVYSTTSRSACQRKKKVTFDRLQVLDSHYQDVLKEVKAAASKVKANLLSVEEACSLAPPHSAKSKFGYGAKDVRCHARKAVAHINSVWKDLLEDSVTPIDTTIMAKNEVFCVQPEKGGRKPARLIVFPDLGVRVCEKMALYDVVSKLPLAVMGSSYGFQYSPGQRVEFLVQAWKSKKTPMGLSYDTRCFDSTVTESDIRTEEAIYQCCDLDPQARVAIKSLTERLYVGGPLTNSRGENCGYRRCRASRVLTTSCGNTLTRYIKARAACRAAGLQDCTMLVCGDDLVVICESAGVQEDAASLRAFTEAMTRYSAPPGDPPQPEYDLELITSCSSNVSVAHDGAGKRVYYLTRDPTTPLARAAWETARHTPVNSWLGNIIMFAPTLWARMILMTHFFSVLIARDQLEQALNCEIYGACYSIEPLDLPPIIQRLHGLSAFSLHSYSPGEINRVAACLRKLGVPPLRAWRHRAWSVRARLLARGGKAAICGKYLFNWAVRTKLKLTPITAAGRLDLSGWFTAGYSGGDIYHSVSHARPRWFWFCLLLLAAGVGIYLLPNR
row,SMILES,IC50
1,"CCOc1ccccc1C(=O)NC1N=C(c2ccc(Cl)cc2)c2ccccc2NC1=O (stereo not drawn) [Example 1, N-[5-(4-Chloro-phenyl)-2-oxo-2,3-dihydro-1H-benzo[e][1,4]diazepin-3-yl]-2-ethoxy-benzamide]",> 1 µM
2,"O=C(NC1N=C(c2ccc(Cl)cc2)c2ccccc2NC1=O)c1sccc1Br (stereo not drawn) [Example 12, 3-Bromo-thiophene-2-carboxylic acid [5-(4-chloro-phenyl)-2-oxo-2,3-dihydro-1H-benzo[e][1,4]diazepin-3-yl]-amide]",> 1 µM
3,"COc1ccc(Cl)cc1C(=O)NC1N=C(c2ccc(Cl)cc2)c2ccccc2NC1=O (stereo not drawn) [Example 9, 5-Chloro-N-[5-(4-chloro-phenyl)-2-oxo-2,3-dihydro-1H-benzo[e][1,4]diazepin-3-yl]-2-methoxy-benzamide]",< 1 µM
4,"COc1ccc(Cl)cc1C(=O)N[C@H]1N=C(c2ccc(Cl)cc2)c2ccccc2NC1=O [Example 10, (S)-5-Chloro-N-[5-(4-chloro-phenyl)-2-oxo-2,3-dihydro-1H-benzo[e][1,4]diazepin-3-yl]-2-methoxy-benzamide]",< 1 µM
5,"COc1ccc(OC)c(C(=O)NC2N=C(c3ccc(Cl)cc3)c3ccccc3NC2=O)c1 (stereo not drawn) [Example 3, N-[5-(4-Chloro-phenyl)-2-oxo-2,3-dihydro-1H-benzo[e][1,4]diazepin-3-yl]-2,5-dimethoxy-benzamide]",< 1 µM
6,"COc1ccc(OC)c(C(=O)N[C@H]2N=C(c3ccc(Cl)cc3)c3ccccc3NC2=O)c1 [Example 4, (S)—N-[5-(4-Chloro-phenyl)-2-oxo-2,3-dihydro-1H-benzo[e][1,4]diazepin-3-yl]-2,5-dimethoxy-benzamide]",< 1 µM
7,"COc1ccc(F)cc1C(=O)N[C@H]1N=C(c2ccc(Cl)cc2)c2ccccc2NC1=O [Example 7, (S)—N-[5-(4-Chloro-phenyl)-2-oxo-2,3-dihydro-1H-benzo[e][1,4]diazepin-3-yl]-5-fluoro-2-methoxy-benzamide]",> 1 µM
8,"COc1ccc(F)cc1C(=O)NC1N=C(c2ccc(Cl)cc2)c2ccccc2NC1=O (stereo not drawn) [Example 6, N-[5-(4-Chloro-phenyl)-2-oxo-2,3-dihydro-1H-benzo[e][1,4]diazepin-3-yl]-5-fluoro-2-methoxy-benzamide]",> 1 µM
9,"CCOc1ccccc1C(=O)N[C@H]1N=C(c2ccc(Cl)cc2)c2ccccc2NC1=O [Example 2, (S)—N-[5-(4-Chloro-phenyl)-2-oxo-2,3-dihydro-1H-benzo[e][1,4]diazepin-3-yl]-2-ethoxy-benzamide]",> 1 µM
10,"COc1ccc(OC)c(C(=O)N[C@@H]2N=C(c3ccc(Cl)cc3)c3ccccc3NC2=O)c1 [Example 5, (R)—N-[5-(4-Chloro-phenyl)-2-oxo-2,3-dihydro-1H-benzo[e][1,4]diazepin-3-yl]-2,5-dimethoxy-benzamide]",> 1 µM
11,"COc1ccc(Cl)cc1C(=O)N[C@@H]1N=C(c2ccc(Cl)cc2)c2ccccc2NC1=O [Example 11, (R)-5-Chloro-N-[5-(4-chloro-phenyl)-2-oxo-2,3-dihydro-1H-benzo[e][1,4]diazepin-3-yl]-2-methoxy-benzamide]",> 1 µM
12,"COc1ccc(F)cc1C(=O)N[C@@H]1N=C(c2ccc(Cl)cc2)c2ccccc2NC1=O [Example 8, (R)—N-[5-(4-Chloro-phenyl)-2-oxo-2,3-dihydro-1H-benzo[e][1,4]diazepin-3-yl]-5-fluoro-2-methoxy-benzamide]",> 1 µM
